Assays:
[1] = biological target: SM80.1, 7S vicilin from Solanum melongena (eggplant) seeds (Solanum melongena); assay: crystal structure; R32 crystal form, 1.5 A; one monomer in the asymmetric unit, trimer formed around the threefold crystallographic axis; crystals grown in 10% (w/v) PEG 3350, 1.5 M-2 M sodium malonate, hanging drop, 25°C
SM80.1 = biological target: T1, SM80.1 (Solanum virginianum, UniProt A0A158RFR1); assay: X-ray crystal structure, […] Å; format: binding; details: crystals from PEG 3350, sodium malonate, 25°C
T1 construct: native protein from seeds (ammonium sulphate fraction, gel filtration); 45 kDa band; homotrimer; 392 residues in structure
T1 sequence (A0A158RFR1 1-392): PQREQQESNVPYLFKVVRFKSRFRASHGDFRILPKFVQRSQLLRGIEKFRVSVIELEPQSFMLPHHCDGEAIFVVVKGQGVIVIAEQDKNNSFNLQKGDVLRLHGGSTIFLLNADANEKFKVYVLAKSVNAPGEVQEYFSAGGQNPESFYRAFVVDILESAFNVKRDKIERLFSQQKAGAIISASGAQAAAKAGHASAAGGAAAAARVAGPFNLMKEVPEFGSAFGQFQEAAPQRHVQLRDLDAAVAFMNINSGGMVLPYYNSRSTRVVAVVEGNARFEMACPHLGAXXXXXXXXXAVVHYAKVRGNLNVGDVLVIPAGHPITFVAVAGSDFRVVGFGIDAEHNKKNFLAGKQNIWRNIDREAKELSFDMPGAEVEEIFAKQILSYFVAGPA

SM80.1, 7S vicilin from Solanum melongena (eggplant) seeds (natural protein)
stoichiometry N [1]: 3

CC(=O)O [ACT, acetate]
X-ray crystal structure, 1.5 Å (SM80.1; bound without being listed in crystallisation mix, C-terminal beta-barrel pocket (Tyr260, Asn262, Arg267, Lys346)): Acetate moiety was present in the corresponding pocket in the C-terminal domain

O=C1CC[C@@H](C(=O)O)N1 [PCA, pyroglutamate]
X-ray crystal structure, 1.5 Å (SM80.1; co-purified endogenous ligand, N-terminal beta-barrel pocket (His65, Cys67)): The N-terminal domain has cyclic lactam of glutamate, called pyroglutamate.
